Experimental data: patent publication US8937050B2, “Methods and compositions for treatment of autism” (The Johns Hopkins University, priority 2011, dated 2015)

What was measured:
XALD fibroblasts = assay: Inhibition studies: ATP5B immunofluorescence of drug-induced mitochondrial biogenesis; type: cell-based, human; details: four days; FIG. 2A
Experimental: Performed as described in Watkins et al., 1995 using 4% formaldehyde, 1% Triton X-100, primary antibody anti-ATP5B (Millipore, Billerica, Mass.) or anti-ABCD3 (Invitrogen, Carlsbad, Calif.), and secondary antibody sheep anti-mouse IgG FITC-conjugated (Santa Cruz Biotechnology, Santa Cruz, Calif.) or goat anti-rabbit IgG rhodamine-conjugated (Jackson ImmunoResearch, West Grove, Pa.).
Antimycin A (10 ng/mL), LY294002, PD98059, RO-31-8425, SB203580, SP600125, and L-NAME were obtained from Sigma. Compound C was from EMD Biosciences (Darmstadt, Germany). Human fibroblasts were treated with each inhibitor. Then, 45-75 min later, either 4PBA, HU, TSA, or SFN was added. Cells were stained four to six days after treatment with one of the small molecules. As a control for inhibitors dissolved in DMSO, fibroblasts were treated with an equivalent amount of DMSO in the absence of inhibitor. […]
In FIGS. 2A-B, the JNK inhibitor SP600125 (10 μM+inh) was utilized. […] XALD fibroblasts were treated with each drug for four days with or without SP600125. (400× magnification). […] Normal human fibroblasts were treated with each of the small four molecules with or without SP600125 for six days. Quantitative in-cell western analyses were performed using anti-ATP5B.

normal human fibroblasts = assay: Quantitative in-cell western analysis with anti-ATP5B; type: cell-based; details: six days, FIG. 2B
Experimental: The immunostaining of primary human fibroblasts with anti-ATP5B, DRAQ5 (Cell Signaling Technologies, Danvers, Mass.; a cellular DNA stain to normalize cell number), and secondary antibody IRDye 800CW donkey anti-mouse IgG (Li-cor Biosciences, Lincoln, Nebr.) was identical to the indirect immunofluorescence procedure described above and performed in duplicate. Imaging and quantification were performed using the Odyssey Imager (L1-cor Biosciences).
In FIGS. 2A-B, the JNK inhibitor SP600125 (10 μM+inh) was utilized. […] Normal human fibroblasts were treated with each of the small four molecules with or without SP600125 for six days. Quantitative in-cell western analyses were performed using anti-ATP5B.

JNK pathway = assay: Immunoblot analysis of JNK phosphorylation; type: cell-based; details: normal human fibroblasts, within 24 hours; FIG. 2F
Experimental: Normal human fibroblasts were treated at various time points. Treatment was initiated at the indicated times prior to collection. The average of the maximum protein expression (within 24 hours) for three or more independent experiments is shown as fold change (drug treated/untreated). Actin (43 kDa) was the loading control. M denotes the marker lane. […] The * statistically significant increase in a measurement between drug treated and untreated or control samples or a statistically significant decrease in a measurement between drug treated and drug treated samples in the presence of SP600125 (p≦0.05) (n≧3 independent experiments unless otherwise noted) (Bars=SEM).

HSP70 and HSP90 = assay: Immunoblot analyses of HSP expression; type: cell-based, human; details: for heat shock response (HSR): normal human fibroblasts
Experimental: (§4) Expression of key components of the HSR, UPR, the autophagic response, and the antioxidant response were monitored at the transcriptional, translational, and/or post-translational level. […] Due to the transient nature of these responses, several components of each pathway were monitored at various time points within a 24 hour treatment. At least two normal human fibroblast lines were tested in three or more independent experiments. […] The average of the maximal increase in protein expression within a 24 hour time frame was also compared to the untreated sample. Activation of each pathway was assessed by an increase in one or more components of each pathway.
Normal human fibroblasts were treated at various time points within 24 hours and the average of the maximum protein expression of HSP70 (70 kDa) and HSP90 (90 kDa) is plotted as in FIG. 2F. Actin (43 kDa) was used as a loading control. (UT=untreated cells; * statistical significance (p≦0.05); Bars=SEM for n≧3 independent experiments).

ATF4, CHOP, and BIP = assay: RT-PCR of unfolded protein response (UPR) genes; type: cell-based, human; details: for BIP expression at the transcriptional level: normal human fibroblasts, FIG. 4A
Experimental: Following the manufacturer's protocols, DNase I-treated cDNA was synthesized using Superscript III or Thermoscript reverse transcriptase (Invitrogen). PCR reactions were performed in duplicate on the Roche Lightcycler 3.5 (Basel, Switzerland) or the Bio-Rad iCycler (Hercules, Calif.) using Quantitech SYBR green PCR mix (Qiagen, Valencia, Calif.). GeNorm software calculated a normalization factor for each sample using the relative amounts of at least two of the following reference genes, β2-microglobulin, […], actin, and/or eukaryotic elongation factor 1A (Vandesompele et al., 2002). Primers for the various experiments described herein are listed below.
(§1) Expression of key components of the HSR, UPR, the autophagic response, and the antioxidant response were monitored at the transcriptional, translational, and/or post-translational level. These responses are known to be transiently activated in response to various cellular stressors. The degree of induction of each component can vary depending on the metabolic state of the cell (e.g., confluency, cell passage number) (Kultz 2003; Lallemand et al., 1998; Westerheide et al., 2009). Due to the transient nature of these responses, several components of each pathway were monitored at various time points within a 24 hour treatment. At least two normal human fibroblast lines were tested in three or more independent experiments. […] The average of the maximal increase in protein expression within a 24 hour time frame was also compared to the untreated sample. Activation of each pathway was assessed by an increase in one or more components of each pathway.
(§2) UPR markers evaluated included the central UPR regulator glucose regulated protein 78 (BIP) and other components that are stimulated after the activation of the three ER transmembrane receptors: PKR-like ER kinase (PERK), inositol requiring 1 (IRE1), and activating transcription factor 6 (Fedoroff 2006). […] 2 alpha (eIF2a) is phosphorylated by PERK, attenuates general translation, and induces activating transcription factor 4 (ATF4). CHOP promotes reactivation of PERK. XBP1 mRNA is non-conventionally spliced by the endonuclease activity of IRE1 upon UPR activation.
(§3) Normal human fibroblasts were treated with drugs as indicated. The expression of the UPR genes ATF4, CHOP, and BIP was measured as described in FIG. 2E. […] Normal human fibroblasts were treated at various time points and the average of the maximum protein expression of BIP (78 kDa) and phosphorylated eIF2α (38 kDa) is plotted as in FIG. 2F. Actin (43 kDa) was used as a loading control and is the same blot as FIG. 2F. UT denotes untreated cells. M denotes marker lane. […] Normal human fibroblasts were treated. The expression of the unspliced form (XBP1-us; 33 kDa) and the activated and spliced form of XBP1 (XBP1-s; 54 kDa) was analyzed by immunoblotting. BP1-s is a larger protein than XBP1-us due to non-canonical mRNA splicing which results in a larger carboxy-terminal domain. […] The average of the maximum expression of XBP1-s (within 24 hrs.) is plotted as in FIG. 2F. Actin was used as a loading control.

[1] = test system: BIP, phosphorylated eIF2α, XBP1; assay: Immunoblot analyses of UPR protein expression and XBP1 splicing; type: cell-based, human
Experimental: Cell lysates were collected in mammalian protein extraction reagent (m-PER; Thermo Scientific, Rockford, Ill.) plus 1×protease inhibitor (Sigma-Aldrich) and 1×Halt phosphatase inhibitor (Thermo Scientific). Denatured SDS-PAGE and immunoblot analyses were performed using the following antibodies: phosphorylated JNK and β-actin from Santa Cruz Biotechnology, HSP70, HSP90, BIP, phosphorylated eIF2α, and XBP1 from Cell Signaling, APG8 (Abgent, San Diego, Calif.), and SOD2 (Stressgen, Ann Arbor, Mich.). Quantitation was performed using a Fuji Intelligent Dark box II, FUJI LAS-1000 Lite software and Image Gauge v4.22 software (Tokyo, Japan).
as §1, §2, §3

BCN1 and ATG5 = assay: RT-PCR of autophagy genes; type: cell-based, human; details: for ATG5 mRNA levels / BCN1 mRNA levels: normal human fibroblasts, FIG. 5A
Experimental: (§5) Following the manufacturer's protocols, DNase I-treated cDNA was synthesized using Superscript III or Thermoscript reverse transcriptase (Invitrogen). PCR reactions were performed in duplicate on the Roche Lightcycler 3.5 (Basel, Switzerland) or the Bio-Rad iCycler (Hercules, Calif.) using Quantitech SYBR green PCR mix (Qiagen, Valencia, Calif.). GeNorm software calculated a normalization factor for each sample using the relative amounts of at least two of the following reference genes, β2-microglobulin, glyceraldehyde-6-phosphate, actin, and/or eukaryotic elongation factor 1A (Vandesompele et al., 2002).
as §4
To monitor activation of autophagy, the expression of three classical autophagy markers was examined. The three classical autophagy markers are: (i) beclin-1 (BCN1), (ii) autophagy protein 5 (ATG5), and (iii) microtubule-associated protein 1 light chain 3 (LC3 or APG8). […] Normal human fibroblasts were treated as indicated. The expression of BCN1 and ATG5 were measured as described in FIG. 2E. After TSA treatment, the levels of ATG5 mRNA were measured in two independent experiments in duplicate.

NFE2L2, HMOX1, and SOD2 = assay: RT-PCR of antioxidant genes; type: cell-based, human; details: for HMOX1 mRNA levels / NFE2L2 mRNA levels / SOD2 mRNA levels: normal human fibroblasts, 18 hours, FIG. 5C
Experimental: as §5
The expression of three key components was examined—(i) nuclear factor erythroid 2-like 2 (NFE2L2), (ii) heme oxygenase 1 (HMOX1), and (iii) superoxide dismutase 2 (SOD2). […] Normal human fibroblasts were treated for 18 hours. The expression of NFE2L2, HMOX1, and SOD2 was measured as described in FIG. 2E.

[2] = test system: class I and class II HDAC; assay: Colorimetric HDAC activity assay in HeLa or fibroblast lysates; type: biochemical; details: HeLa and human fibroblast lysates; two concentrations (treatment concentration and ten times); FIG. 6A-B
Experimental: A colorimetric HDAC activity assay was performed in triplicate using 100-200 μg of HeLa or fibroblast lysates following the manufacturer's protocol (K331; Biovision, Mountain View, Calif.).
Whether inhibition of class I and class II HDAC activities is a shared biochemical function that could account for the effects of all four small molecules was examined. Using lysates from HeLa cells and primary human fibroblasts, an in vitro colorimetric assay of HDAC activity was performed. Two concentrations of each small molecule were used. The first concentration was that used to treat primary human fibroblasts in the experiments reported herein, which minimally affects growth. The second concentration was ten times the first concentration and is lethal in cell culture. […] (* p≦0.00009; paired t-test; Bars=SEM for n≧3 independent experiments).

[3] = test system: spinal muscular atrophy fibroblasts; assay: Mitotracker Red CMXROS staining; type: cell-based, human; details: 2.5 mM 4PBA, HU, 100 nM TSA or 2.5 mM SFN for 5 days; FIG. 7
Experimental: SMA type I (GM00232) fibroblasts were treated with 2.5 mM 4PBA, 300 mM HU, 100 nM TSA or 2.5 mM SFN for 5 days, live stained with 25 nM Mitotracker Red CMXROS (Invitrogen) in pre-warmed MEM media for 15 min at 37° C. in a CO2 incubator. Stained cells were washed with pre-warmed MEM, washed with PBS and excess PBS was removed. The cells were examined under the microscope at ×80.
Spinal muscular atrophy fibroblasts were treated with 2.5 mM 4PBA, 300 mM HU, 100 nM TSA or 2.5 mM SFN for 5 days (×80 magnification).

Sickle Cell Disease = details: Hsiao et al., 2006; cited from earlier work
[4] = normal human fibroblasts, FIG. 4B

Compound | mitochondrial biogenesis in XALD fibroblasts (XALD fibroblasts) | mitochondrial mass (ATP5B) compared to untreated cells (normal human fibroblasts) [fold] | JNK pathway (JNK phosphorylation) (JNK pathway) | heat shock response (HSR) (HSP70 and HSP90) | BIP expression at the transcriptional level (ATF4, CHOP, and BIP) | BIP expression at the translational level [1, 4] | ATG5 mRNA levels (BCN1 and ATG5) | BCN1 mRNA levels (BCN1 and ATG5) | HMOX1 mRNA levels (NFE2L2, HMOX1, and SOD2) | NFE2L2 mRNA levels (NFE2L2, HMOX1, and SOD2) | SOD2 mRNA levels (NFE2L2, HMOX1, and SOD2) | HDAC activity compared to untreated lysates [2] | mitochondrial biogenesis (Mitotracker staining) [3] | Therapeutic Effect (Sickle Cell Disease) | further results
C[S@@+]([O-])CCCCN=C=S [SFN, 1-isothiocyanato-4R-(methylsulfinyl)butane] | increased | 2.2 | activated | activated | significantly increased | significantly increased | increased | increased | significantly increased | increased | increased | neither concentration of HU nor SFN reduced | induced | – | total HSP70 protein levels increase (HSP70 and HSP90; in vitro sulforaphane studies): 3-4 fold; total HSP90 protein levels increase (HSP70 and HSP90; in vitro sulforaphane studies): 3-4 fold; ATF4 mRNA expression increase (ATF4, CHOP, and BIP; in vitro sulforaphane studies): 4-5 fold; BIP increase at the transcriptional level (ATF4, CHOP, and BIP; in vitro sulforaphane studies): 2-3 fold; CHOP mRNA expression increase (ATF4, CHOP, and BIP; in vitro sulforaphane studies): 4-5 fold; BIP increase at the translational level ([1]; in vitro sulforaphane studies): 2-3 fold; amount of spliced XBP1 protein increase ([1]; in vitro sulforaphane studies): 3-4; total amount of XBP1 protein increase ([1]; in vitro sulforaphane studies): 3-4; eIF2α phosphorylation [1, 4]: modestly increased; pro-survival capabilities of all three UPR branches ([1]; transcriptional, post-transcriptional, translational and post-translational levels): activated; ATG5 mRNA levels increase (BCN1 and ATG5; in vitro sulforaphane studies): 3 fold; BCN1 mRNA levels increase (BCN1 and ATG5; in vitro sulforaphane studies): 5 fold; expression of HMOX1 increase (NFE2L2, HMOX1, and SOD2; in vitro sulforaphane studies): 6 fold; expression of NFE2L2 increase (NFE2L2, HMOX1, and SOD2; in vitro sulforaphane studies): 3 fold; expression of SOD2 increase (NFE2L2, HMOX1, and SOD2; in vitro sulforaphane studies): 4 fold
4-phenylbutyrate [4PBA] | increased | 2.4 | activated | activated | significantly increased | significantly increased | increased | increased | significantly decreased | increased | increased | significantly decreased | induced | increase F-cell production | –
CC(/C=C/C(=O)NO)=C\[C@@H](C)C(=O)c1ccc(N(C)C)cc1 [TSA, trichostatin A] | increased | 2.5 | activated | activated | significantly increased | significantly increased | increased | increased | significantly increased | increased | increased | significantly decreased | induced | increase F-cell production | –
NC(=O)NO [HU, hydroxyurea] | increased | 1.8 | activated | activated | significantly increased | significantly increased | increased | not reproducibly changed | significantly increased | increased | increased | neither concentration of HU nor SFN reduced | induced | increase F-cell production | –
